Laboratory results reported in patent publication US12662465B2, “EGFR inhibitors” (Blueprint Medicines Corporation, priority 2021, dated 2026).
Like-named read-outs stand apart in the source and are kept apart here.

Experiments:
EGFR (d746-750) = target: T1, EGFR (d746-750) (Homo sapiens, UniProt P00533, DEL746-750); assay: Biochemical EGFR inhibition assay (Caliper mobility shift), EGFR (d746-750); details: read-out: Enz EGFR_Exon19-del746-750 IC50
T1 construct: purchased SignalChem E10-122JG

EGFR L858R = target: T2, EGFR L858R (Homo sapiens, UniProt P00533, L858R); assay: Biochemical EGFR inhibition assay (Caliper mobility shift), EGFR L858R; details: read-out: Enz EGFR_L858R IC50
T2 construct: purchased SignalChem E10-122BG
T2 sequence (P00533 25-1210 L858R): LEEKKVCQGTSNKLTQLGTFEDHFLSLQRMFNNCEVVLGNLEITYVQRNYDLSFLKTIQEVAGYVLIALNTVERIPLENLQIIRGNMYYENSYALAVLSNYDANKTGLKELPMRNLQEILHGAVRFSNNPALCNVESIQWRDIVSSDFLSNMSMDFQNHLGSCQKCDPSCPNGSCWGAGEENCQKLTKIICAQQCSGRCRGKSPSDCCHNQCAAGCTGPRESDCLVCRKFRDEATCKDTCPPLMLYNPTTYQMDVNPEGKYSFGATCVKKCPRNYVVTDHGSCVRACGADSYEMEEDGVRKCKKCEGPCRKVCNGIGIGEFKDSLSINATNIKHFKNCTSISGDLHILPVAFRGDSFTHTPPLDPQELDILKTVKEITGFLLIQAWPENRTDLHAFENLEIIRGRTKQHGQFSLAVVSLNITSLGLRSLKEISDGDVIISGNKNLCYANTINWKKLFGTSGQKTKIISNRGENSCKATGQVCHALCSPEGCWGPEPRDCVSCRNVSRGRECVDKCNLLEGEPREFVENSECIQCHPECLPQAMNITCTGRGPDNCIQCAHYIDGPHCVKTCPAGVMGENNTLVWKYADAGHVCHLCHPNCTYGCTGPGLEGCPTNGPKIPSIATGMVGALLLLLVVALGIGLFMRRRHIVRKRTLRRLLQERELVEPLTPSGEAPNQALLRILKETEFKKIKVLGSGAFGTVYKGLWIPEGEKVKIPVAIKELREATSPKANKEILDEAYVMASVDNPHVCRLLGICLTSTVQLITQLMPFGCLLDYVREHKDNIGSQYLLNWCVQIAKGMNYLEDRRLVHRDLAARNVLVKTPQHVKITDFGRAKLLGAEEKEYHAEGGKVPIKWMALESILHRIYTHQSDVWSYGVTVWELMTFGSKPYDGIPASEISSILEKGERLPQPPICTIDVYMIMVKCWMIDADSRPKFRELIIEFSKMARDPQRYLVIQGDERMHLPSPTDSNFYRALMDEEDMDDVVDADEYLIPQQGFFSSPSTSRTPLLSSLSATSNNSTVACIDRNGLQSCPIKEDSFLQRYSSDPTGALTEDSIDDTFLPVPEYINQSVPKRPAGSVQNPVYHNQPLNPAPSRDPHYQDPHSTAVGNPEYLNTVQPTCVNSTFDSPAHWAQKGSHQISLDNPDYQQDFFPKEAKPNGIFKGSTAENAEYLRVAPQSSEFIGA

[1] = target: intracellular phosphorylation of EGFR (Tyr1068) in PC-9 cells (Ex19Del) (Homo sapiens, UniProt P00533, DEL746-750); assay: PC-9 pEGFR AlphaLISA assay; format: cell-based; details: 4 hours compound incubation, read-out: Ext pEGFR_PC-9 Ex19Del IC50
intracellular phosphorylation of EGFR (Tyr1068) in PC-9 cells (Ex19Del), sequence (P00533 with tags, fused parts or gaps DEL746-750): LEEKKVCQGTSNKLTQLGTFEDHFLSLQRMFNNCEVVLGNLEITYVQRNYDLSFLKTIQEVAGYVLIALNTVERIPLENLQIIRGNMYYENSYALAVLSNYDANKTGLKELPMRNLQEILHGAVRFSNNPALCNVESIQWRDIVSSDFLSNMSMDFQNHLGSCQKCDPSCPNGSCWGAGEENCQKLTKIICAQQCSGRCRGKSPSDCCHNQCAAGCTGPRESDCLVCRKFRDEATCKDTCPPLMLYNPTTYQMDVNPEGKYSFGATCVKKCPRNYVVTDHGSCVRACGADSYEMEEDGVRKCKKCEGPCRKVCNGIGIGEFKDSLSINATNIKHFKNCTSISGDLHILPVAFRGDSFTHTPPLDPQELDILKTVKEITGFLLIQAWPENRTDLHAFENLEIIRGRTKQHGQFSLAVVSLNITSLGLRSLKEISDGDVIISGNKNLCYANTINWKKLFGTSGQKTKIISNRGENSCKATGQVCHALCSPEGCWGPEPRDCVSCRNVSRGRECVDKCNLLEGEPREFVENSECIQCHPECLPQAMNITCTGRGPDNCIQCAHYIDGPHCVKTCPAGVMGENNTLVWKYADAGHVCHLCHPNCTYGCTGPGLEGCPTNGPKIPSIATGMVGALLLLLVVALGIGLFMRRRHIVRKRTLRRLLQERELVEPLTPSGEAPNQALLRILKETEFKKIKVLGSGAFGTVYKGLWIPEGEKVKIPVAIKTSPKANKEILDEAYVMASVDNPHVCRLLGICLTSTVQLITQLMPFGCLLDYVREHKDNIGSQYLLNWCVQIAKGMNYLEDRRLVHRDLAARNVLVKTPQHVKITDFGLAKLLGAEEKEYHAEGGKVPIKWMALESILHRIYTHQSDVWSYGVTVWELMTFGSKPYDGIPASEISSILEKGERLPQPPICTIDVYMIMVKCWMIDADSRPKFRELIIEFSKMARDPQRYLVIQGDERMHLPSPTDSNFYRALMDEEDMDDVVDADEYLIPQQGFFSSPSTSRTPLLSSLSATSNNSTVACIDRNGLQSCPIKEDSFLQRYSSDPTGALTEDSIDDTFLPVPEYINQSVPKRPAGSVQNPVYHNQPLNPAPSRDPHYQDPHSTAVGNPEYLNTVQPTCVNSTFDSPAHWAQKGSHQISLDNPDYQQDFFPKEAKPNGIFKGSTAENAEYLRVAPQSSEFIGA

[2] = 1.0 mM ATP or ATP Km, room temperature (25° C.)

T1 sequence (P00533 with tags, fused parts or gaps DEL746-750 limits assumed): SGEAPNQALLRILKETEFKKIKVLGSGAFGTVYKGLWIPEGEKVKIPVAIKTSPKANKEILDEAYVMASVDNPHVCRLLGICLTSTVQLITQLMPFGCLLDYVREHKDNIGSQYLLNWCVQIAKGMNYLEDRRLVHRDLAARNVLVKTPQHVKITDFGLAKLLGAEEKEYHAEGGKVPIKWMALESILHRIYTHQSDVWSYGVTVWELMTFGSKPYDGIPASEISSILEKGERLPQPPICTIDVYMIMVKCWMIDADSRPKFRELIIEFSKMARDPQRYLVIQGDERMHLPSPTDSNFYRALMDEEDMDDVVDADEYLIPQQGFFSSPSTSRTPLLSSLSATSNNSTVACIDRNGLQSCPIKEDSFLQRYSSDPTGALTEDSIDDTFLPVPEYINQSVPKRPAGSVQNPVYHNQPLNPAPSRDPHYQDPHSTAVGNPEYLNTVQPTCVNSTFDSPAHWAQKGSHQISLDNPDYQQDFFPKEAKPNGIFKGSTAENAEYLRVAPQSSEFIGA

Row | SMILES | IC50 (EGFR (d746-750)) [nM] | IC50 (EGFR L858R) [nM] | IC50 [1] [nM] | IC50 (EGFR (d746-750); [2]) [nM] | IC50 (EGFR L858R; [2]) [nM]
1 | COc1cn(C)nc1-c1cc(O[C@H](C)CN(C)C)c2c(Nc3ccc4ncccc4c3F)ncnc2c1 [Example 45, (R)-5-((1-(dimethylamino)propan-2-yl)oxy)-N-(5-fluoroquinolin-6-yl)-7-(4-methoxy-1-methyl-1H-pyrazol-3-yl)quinazolin-4-amine] | < 10 | < 10 | ≤ 10 | – | –
2 | C[C@@H](Oc1cc(-c2cnn(C)c2)cc2ncnc(Nc3ccc4ncccc4c3F)c12)C1COC1 (single isomer, unassigned) [Example 1, (R)—N-(5-fluoroquinolin-6-yl)-7-(1-methyl-1H-pyrazol-4-yl)-5-(1-(oxetan-3-yl)ethoxy)quinazolin-4-amine or (S)—N-(5-fluoroquinolin-6-yl)-7-(1-methyl-1H-pyrazol-4-yl)-5-(1-(oxetan-3-yl)ethoxy)quinazolin-4-amine] | – | – | ≤ 10 | < 10 | < 10
3 | CC[C@H](CN(C)C)Oc1cc(-c2cnn(C)c2)cc2ncnc(Nc3ccc4ncccc4c3F)c12 [Example 24, (R)-5-((1-(dimethylamino)butan-2-yl)oxy)-N-(5-fluoroquinolin-6-yl)-7-(1-methyl-1H-pyrazol-4-yl)quinazolin-4-amine] | < 10 | < 10 | ≤ 10 | – | –
4 | C[C@H](CN(C)C)Oc1cc(N2CCS(=O)(=O)CC2)cc2ncnc(Nc3ccc4ncccc4c3F)c12 [Example 81, (R)-4-(5-((1-(dimethylamino)propan-2-yl)oxy)-4-((5-fluoroquinolin-6-yl)amino)quinazolin-7-yl)thiomorpholine 1,1-dioxide] | > 50.1 | > 50.1 | > 50.1 | – | –
5 | C[C@@H](Oc1cc(-c2cnn(CCO)c2)cc2ncnc(Nc3ccc4ncccc4c3F)c12)C1COC1 [Example 51, (R)-2-(4-(4-((5-fluoroquinolin-6-yl)amino)-5-(1-(oxetan-3-yl)ethoxy)quinazolin-7-yl)-1H-pyrazol-1-yl)ethan-1-ol] | < 10 | < 10 | ≤ 10 | – | –
6 | Cn1cc(-c2cc(O[C@@H]3CC[C@@H]3O)c3c(Nc4ccc5ncccc5c4F)ncnc3c2)cn1 (single isomer, unassigned) [Example 16, (1S,2R)-2-((4-((5-fluoroquinolin-6-yl)amino)-7-(1-methyl-1H-pyrazol-4-yl)quinazolin-5-yl)oxy)cyclobutan-1-ol or (1R,2S)-2-((4-((5-fluoroquinolin-6-yl)amino)-7-(1-methyl-1H-pyrazol-4-yl)quinazolin-5-yl)oxy)cyclobutan-1-ol] | – | – | ≤ 10 | < 10 | < 10
7 | C[C@H](CN(C)C)Oc1cc(N2CCC3(COC3)C2)cc2ncnc(Nc3ccc4ncccc4c3F)c12 [Example 74, (R)-5-((1-(dimethylamino)propan-2-yl)oxy)-N-(5-fluoroquinolin-6-yl)-7-(2-oxa-6-azaspiro[3.4]octan-6-yl)quinazolin-4-amine] | < 10 | 10.1 to 50 | 10.1 to 50 | – | –
8 | C[C@H](CN(C)C)Oc1cc(-c2cnn(C)c2)cc2ncnc(Nc3ccc4cccnc4c3)c12 [Example 13, (R)-5-((1-(dimethylamino)propan-2-yl)oxy)-7-(1-methyl-1H-pyrazol-4-yl)-N-(quinolin-7-yl)quinazolin-4-amine] | < 10 | < 10 | ≤ 10 | – | –
9 | CO[C@H]1CCN(c2cc(O[C@H](C)C3COC3)c3c(Nc4ccc5ncccc5c4F)ncnc3c2)C1 (single isomer, unassigned) [Example 85b, N-(5-fluoroquinolin-6-yl)-7-((S)-3-methoxypyrrolidin-1-yl)-5-((R)-1-(oxetan-3-yl)ethoxy)quinazolin-4-amine or N-(5-fluoroquinolin-6-yl)-7-((R)-3-methoxypyrrolidin-1-yl)-5-((R)-1-(oxetan-3-yl)ethoxy)quinazolin-4-amine] | – | – | ≤ 10 | < 10 | < 10
10 | CN1CCC(Oc2cc(-c3cnn(C)c3)cc3ncnc(Nc4ccc5ncccc5c4F)c23)CC1 [Example 50, N-(5-fluoroquinolin-6-yl)-7-(1-methyl-1H-pyrazol-4-yl)-5-((1-methylpiperidin-4-yl)oxy)quinazolin-4-amine] | < 10 | < 10 | ≤ 10 | – | –
11 | COC1CCN(c2cc(O[C@H](C)CN(C)C)c3c(Nc4ccc5ncccc5c4F)ncnc3c2)C1 (mixture of isomers) [Example 86, 5—(((R)-1-(dimethylamino)propan-2-yl)oxy)-N-(5-fluoroquinolin-6-yl)-7-((R)-3-methoxypyrrolidin-1-yl)quinazolin-4-amine and 5-(((R)-1-(dimethylamino)propan-2-yl)oxy)-N-(5-fluoroquinolin-6-yl)-7-((S)-3-methoxypyrrolidin-1-yl)quinazolin-4-amine] | < 10 | < 10 | ≤ 10 | – | –
12 | C[C@H](CN(C)C)Oc1cc(N2CCO[C@@H](C(F)F)C2)cc2ncnc(Nc3ccc4ncccc4c3F)c12 (single isomer, unassigned) [Example 99a, 7-((S)-2-(difluoromethyl)morpholino)-5-(((R)-1-(dimethylamino)propan-2-yl)oxy)-N-(5-fluoroquinolin-6-yl) or 7-((R)-2-(difluoromethyl)morpholino)-5-(((R)-1-(dimethylamino)propan-2-yl)oxy)-N-(5-fluoroquinolin-6-yl)quinazolin-4-amine] | – | – | ≤ 10 | < 10 | < 10
13 | CN1CCC[C@H](Oc2cc(-c3cnn(C)c3)cc3ncnc(Nc4ccc5ncccc5c4F)c23)C1 [Example 35, (S)—N-(5-fluoroquinolin-6-yl)-7-(1-methyl-1H-pyrazol-4-yl)-5-((1-methylpiperidin-3-yl)oxy)quinazolin-4-amine] | < 10 | < 10 | ≤ 10 | – | –
14 | CO[C@H]1CCN(c2cc3ncnc(Nc4ccc5ncccc5c4F)c3c(OC(C)CN(C)C)n2)C1 (stereo in doubt) [Example 77, 5—(((S)-1-(dimethylamino)propan-2-yl)oxy)-N-(5-fluoroquinolin-6-yl)-7-((S)-3-methoxypyrrolidin-1-yl)pyrido[4,3-d]pyrimidin-4-amine] | < 10 | 10.1 to 50 | 10.1 to 50 | – | –
15 | C[C@H](CN(C)C)Oc1cc(N2CC3(COC3)C2)cc2ncnc(Nc3ccc4ncccc4c3F)c12 [Example 71, (R)-5-((1-(dimethylamino)propan-2-yl)oxy)-N-(5-fluoroquinolin-6-yl)-7-(2-oxa-6-azaspiro[3.3]heptan-6-yl)quinazolin-4-amine] | < 10 | < 10 | ≤ 10 | – | –

The next lines start with the values.

Row | IC50 (EGFR (d746-750)) [nM] | IC50 (EGFR L858R) [nM] | IC50 [1] [nM] | IC50 (EGFR (d746-750); [2]) [nM] | IC50 (EGFR L858R; [2]) [nM] | SMILES
16 | < 10 | < 10 | ≤ 10 | – | – | [2H]c1ccc2cc(Nc3ncnc4cc(-c5cnn(C)c5)cc(O[C@H](C)CN(C)C)c34)ccc2n1 [Example 156, (R)-5-((1-(dimethylamino)propan-2-yl)oxy)-7-(1-methyl-1H-pyrazol-4-yl)-N-(quinolin-6-yl-2-d)quinazolin-4-amine]
17 | < 10 | < 10 | 10.1 to 50 | – | – | C[C@H](CN(C)C)Oc1cc(-c2cnn(C)c2)cc2c1c(Nc1ccc3ncccc3c1F)nc[n+]2[O-] (single isomer, unassigned) [Example 127]
18 | < 10 | < 10 | > 50.1 | – | – | C[C@H](CN(C)C)Oc1cc(-c2cnn(C)c2)cc2ncnc(Nc3cnc4ccccc4c3F)c12 [Example 110, (R)-5-((1-(dimethylamino)propan-2-yl)oxy)-N-(4-fluoroquinolin-3-yl)-7-(1-methyl-1H-pyrazol-4-yl)quinazolin-4-amine]
19 | < 10 | < 10 | ≤ 10 | – | – | C[C@H](CN(C)C1CC1)Oc1cc(-c2cnn(C)c2)cc2ncnc(Nc3ccc4ncccc4c3F)c12 [Example 114, (R)-5-((1-(cyclopropyl(methyl)amino)propan-2-yl)oxy)-N-(5-fluoroquinolin-6-yl)-7-(1-methyl-1H-pyrazol-4-yl)quinazolin-4-amine]
20 | < 10 | < 10 | ≤ 10 | – | – | COCC(CO)[C@@H](C)Oc1cc(-c2cnn(C)c2)cc2ncnc(Nc3ccc4ncccc4c3F)c12 (stereo partly drawn) [Example 112, (3R)-3-((4-((5-fluoroquinolin-6-yl)amino)-7-(1-methyl-1H-pyrazol-4-yl)quinazolin-5-yl)oxy)-2-(methoxymethyl)butan-1-ol]
21 | < 10 | 10.1 to 50 | 10.1 to 50 | – | – | CCn1cc(-c2cc(OC3CCN(C)CC3)c3c(Nc4ccc5ncccc5c4F)ncnc3c2)c(OC)n1 [Example 117, 7-(1-ethyl-3-methoxy-1H-pyrazol-4-yl)-N-(5-fluoroquinolin-6-yl)-5-((1-methylpiperidin-4-yl)oxy)quinazolin-4-amine]
22 | 10.1 to 50 | > 50.1 | > 50.1 | – | – | CC(=O)N1C2CC1CN(c1cc(O[C@H](C)CN(C)C)c3c(Nc4ccc5ncccc5c4F)ncnc3c1)C2 [Example 151, 1-(3-(5-(((R)-1-(dimethylamino)propan-2-yl)oxy)-4-((5-fluoroquinolin-6-yl)amino)quinazolin-7-yl)-3,6-diazabicyclo[3.1.1]heptan-6-yl)ethan-1-one]
23 | > 50.1 | > 50.1 | > 50.1 | – | – | C[C@H](CN(C)C)Oc1cc(N2CC3CC(C2)N3)cc2ncnc(Nc3ccc4ncccc4c3F)c12 [Example 150, 7-(3,6-diazabicyclo[3.1.1]heptan-3-yl)-5-(((R)-1-(dimethylamino)propan-2-yl)oxy)-N-(5-fluoroquinolin-6-yl)quinazolin-4-amine]
